# Results reported in patent US12545669B2, “Cycloalkyl and heterocycloalkyl benzisoxazole sulfonamide derivatives” (Pfizer Inc., priority 2019, dated 2026).
# Where two headings read alike, the source gives them in different places.
# Biological target: KAT6A (Homo sapiens (Human), UniProt Q92794)
# Experiment: KAT assay protocol (SAMDI mass spectrometry), KAT6A
# Format: biochemical
# Conditions: for inhibition at 1 µM: 1 μM compound; for IC50: KAT6A IC50 at 1 μM AcCoA, 1 μM AcCoA; for Ki: 10 μM AcCoA, Morrison equation
# Experimental: Biological Assay Section 1 KAT Assay Protocol:
# A. Compound Preparation • 1. Prepare 10 mM stock solutions in 100% DMSO from solid material • 2. Serial dilute 10 mM, 1 mM or 0.1 mM compound stocks 3-fold in 100% DMSO for 11-point dose response
# B. Reagent Preparation • 1. Prepare 1× assay buffer containing 10 mM Tris HCL pH 8.0, 2.5 mM NaCl, 0.5 mM EDTA, 0.005% BSG and 0.02% Tween-20 • 2. Dilute Histone peptide (CPC Scientific) and AcCoA (Sigma) together in assay buffer to 2×. • 3. Dilute KAT enzyme in assay buffer to 2×.
# C. Enzyme Reaction • 1. Final reaction conditions for each KAT assay in a 20 ul assay reaction volume: • i. […] Add 0.5 ul of diluted compound to the assay plate (384-well V-bottom polypropylene plates) or 0.5 ul of DMSO for control wells. • 3. Add 10 ul of 2× Histone peptide/2× AcCoA mix to the assay plate. • 4. Add 10 ul of 2× enzyme to the assay plate. • 5. Stop the reaction after the indicated time with the addition of 2 ul of 5% formic acid • 6. Each reaction was analyzed using self-assembled monolayer desorption/ionization time-of-flight mass spectrometry (Mrksich, Milan (2008) Mass Spectrometry of Self-Assembled Monolayers: A New Tool for Molecular Surface Science ACS Nano 2008 2 (1), 7-18; SAMDI Tech, Inc. (Chicago, IL)). • 7. Area under the curve (AUC) for both substrate and product peaks was determined for KAT6A at M.W. 2723 [Substrate+H]^+ and 2765 [Product+H]^+ with a +/−1 Da tolerance, respectively. • 8. Percent conversion to product was calculated by: AUCProduct/(AUCSubstrate+AUCProduct).
# D. Data Analysis • 1. IC50 values were determined by fitting the % conversion at each inhibitor concentration to the 4-parameter IC50 equation using Pfizer proprietary curve fitting software. • 2. Ki values were determined by fitting the % conversion at each inhibitor concentration to the Morrison equation for tightbinding competitive inhibitors using Pfizer proprietary curve fitting software. Materials
# KAT enzymes were expressed using a baculovirus expression system and purified at Pfizer, La Jolla. Histone H3 (1-21) peptide ([…], SEQ ID NO:3) was purchased from CPC Scientific (Sunnyvale, CA). Acetyl coenzyme A was purchased from Sigma-Aldrich (St. Louis, MO). All other biochemical reagents were purchased from Sigma-Aldrich or ThermoFisher Scientific (Waltham, MA).
# […] 10 ul of 2× Histone peptide/AcCoA mix was added to a 384-well V-bottom polypropylene assay plate containing 0.5 ul of serially diluted test compound in 100% dimethyl sulfoxide (DMSO). To start the reaction, 10 ul of 2× enzyme solution was added to the assay plate. KAT assays were terminated after 30-60 minutes with the addition of 2 ul of 5% formic acid. KAT6A used histone H3 (1-21) peptide. The final enzyme concentration for KAT6A was 15 nM. Each reaction was analyzed using self-assembled monolayer desorption/ionization time-of-flight mass spectrometry (Mrksich, Milan (2008) Mass Spectrometry of Self-Assembled Monolayers: A New Tool for Molecular Surface Science ACS Nano 2008 2 (1), 7-18; SAMDI Tech, Inc. (Chicago, IL)).
# Area under the curve (AUC) for both substrate and product peaks was determined for KAT6A at M.W. 2723 [Substrate+H]^+ and 2765 [Product+H]^+ with a +/−1 Da tolerance, respectively. Percent conversion to product was calculated by: AUCProduct/(AUCSubstrate+AUCProduct). IC50 values were determined by fitting the % conversion at each inhibitor concentration to the 4-parameter IC50 equation using Pfizer proprietary curve fitting software. Ki values were determined by fitting the % conversion at each inhibitor concentration to the Morrison equation for tightbinding competitive inhibitors using Pfizer proprietary curve fitting software.
# [1] = read-out: KAT6A Ki at 10 μM AcCoA
# KAT6A, sequence (Q92794 whole entry): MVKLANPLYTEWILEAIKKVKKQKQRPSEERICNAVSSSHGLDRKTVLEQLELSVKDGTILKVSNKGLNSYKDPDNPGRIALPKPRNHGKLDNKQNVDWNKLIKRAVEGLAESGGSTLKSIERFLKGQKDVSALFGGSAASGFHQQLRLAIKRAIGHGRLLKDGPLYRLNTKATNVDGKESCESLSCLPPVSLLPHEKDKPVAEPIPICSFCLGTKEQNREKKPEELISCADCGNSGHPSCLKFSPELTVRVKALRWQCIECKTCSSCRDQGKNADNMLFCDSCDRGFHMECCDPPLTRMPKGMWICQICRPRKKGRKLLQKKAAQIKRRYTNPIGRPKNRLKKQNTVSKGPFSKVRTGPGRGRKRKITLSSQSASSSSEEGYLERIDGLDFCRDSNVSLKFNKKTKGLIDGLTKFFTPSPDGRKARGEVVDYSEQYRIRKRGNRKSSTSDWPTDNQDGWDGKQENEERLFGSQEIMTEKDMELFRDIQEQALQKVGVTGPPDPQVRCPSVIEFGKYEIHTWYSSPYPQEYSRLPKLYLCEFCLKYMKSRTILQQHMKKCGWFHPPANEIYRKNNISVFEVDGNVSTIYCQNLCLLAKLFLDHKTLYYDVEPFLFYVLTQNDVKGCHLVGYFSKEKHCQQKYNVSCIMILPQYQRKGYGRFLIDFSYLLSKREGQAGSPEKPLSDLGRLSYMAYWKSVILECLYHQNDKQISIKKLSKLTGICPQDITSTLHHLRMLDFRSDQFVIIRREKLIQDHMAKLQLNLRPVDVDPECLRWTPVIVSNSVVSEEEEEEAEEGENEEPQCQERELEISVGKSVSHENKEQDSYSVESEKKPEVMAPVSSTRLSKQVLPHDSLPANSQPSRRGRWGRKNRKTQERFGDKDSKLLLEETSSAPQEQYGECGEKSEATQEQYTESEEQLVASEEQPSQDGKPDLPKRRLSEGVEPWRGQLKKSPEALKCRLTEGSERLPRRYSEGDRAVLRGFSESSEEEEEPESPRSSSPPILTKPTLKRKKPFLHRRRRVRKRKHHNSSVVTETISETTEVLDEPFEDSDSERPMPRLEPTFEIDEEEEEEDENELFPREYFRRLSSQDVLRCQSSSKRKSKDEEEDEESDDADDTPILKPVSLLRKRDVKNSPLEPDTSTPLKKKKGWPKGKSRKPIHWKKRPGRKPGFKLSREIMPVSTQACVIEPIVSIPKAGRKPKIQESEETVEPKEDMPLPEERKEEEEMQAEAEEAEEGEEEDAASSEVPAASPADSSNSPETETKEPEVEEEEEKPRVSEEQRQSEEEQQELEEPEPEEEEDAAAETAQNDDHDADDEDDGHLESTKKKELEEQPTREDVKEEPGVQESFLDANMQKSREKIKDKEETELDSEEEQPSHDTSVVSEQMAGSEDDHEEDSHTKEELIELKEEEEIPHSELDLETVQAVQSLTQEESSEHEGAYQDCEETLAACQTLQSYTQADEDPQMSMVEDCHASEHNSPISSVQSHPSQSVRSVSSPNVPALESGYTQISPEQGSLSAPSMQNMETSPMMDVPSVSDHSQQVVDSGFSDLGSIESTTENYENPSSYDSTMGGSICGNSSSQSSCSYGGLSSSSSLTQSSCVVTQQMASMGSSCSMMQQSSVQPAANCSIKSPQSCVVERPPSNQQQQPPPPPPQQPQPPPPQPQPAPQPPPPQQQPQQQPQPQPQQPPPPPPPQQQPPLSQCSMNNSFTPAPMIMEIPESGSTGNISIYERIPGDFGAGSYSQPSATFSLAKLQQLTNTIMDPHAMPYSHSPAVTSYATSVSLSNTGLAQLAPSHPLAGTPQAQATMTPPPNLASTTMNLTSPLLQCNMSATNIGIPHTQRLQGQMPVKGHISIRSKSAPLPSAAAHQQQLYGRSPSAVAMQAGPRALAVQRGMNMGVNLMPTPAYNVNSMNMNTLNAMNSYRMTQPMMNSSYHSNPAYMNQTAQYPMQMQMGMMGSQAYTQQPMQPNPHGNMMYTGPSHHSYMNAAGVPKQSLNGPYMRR
Compound,inhibition at 1 µM [%],Ki (KAT6A Ki at 10 μM AcCoA) [nM],further results
"COc1cc(Cn2cccn2)cc2onc(NS(=O)(=O)CC3CCCCO3)c12 (single isomer, unassigned; (+)) [Example 1, (+)-N-{4-methoxy-6-[(1H-pyrazol-1-yl)methyl]-1,2-benzoxazol-3-yl}-1-(oxan-2-yl)methanesulfonamide]",88,–,IC50: 117 nM
"COc1cc(Cn2cccn2)cc2onc(NS(=O)(=O)CC3CCCCO3)c12 (single isomer, unassigned; (-)) [Example 2, (−)-N-{4-methoxy-6-[(1H-pyrazol-1-yl)methyl]-1,2-benzoxazol-3-yl}-1-(oxan-2-yl)methanesulfonamide]",–,–,IC50: 270 nM
COc1cc(Cn2cccn2)cc2onc(NS(=O)(=O)CC3CCCOC3)c12 (centres unmarked) [Example 3],–,–,IC50: 301 nM
COc1cc(Cn2cccn2)cc2onc(NS(=O)(=O)CC3CCCOC3)c12 (centres unmarked) [Example 4],–,–,IC50: 349 nM
COc1cc(Cn2cccn2)cc2onc(NS(=O)(=O)CC3CCCO3)c12 (centres unmarked) [Example 5],–,–,IC50: 323 nM
COc1cc(Cn2cccn2)cc2onc(NS(=O)(=O)CC3CCCO3)c12 (centres unmarked) [Example 6],–,–,IC50: 371 nM
"COc1cc(Cn2cccn2)cc2onc(NS(=O)(=O)CC3CCOCC3)c12 [Example 7, N-{4-methoxy-6-[(1H-pyrazol-1-yl)methyl]-1,2-benzoxazol-3-yl}-1-(oxan-4-yl)methanesulfonamide]",51,177,–
COc1cc(Cn2cccn2)cc2onc(NS(=O)(=O)CC3CCC(F)CC3)c12 (centres unmarked) [Example 8],77,–,–
COc1cc(Cn2cccn2)cc2onc(NS(=O)(=O)CC3CCCC3)c12 [Example 9],91,60.1,–
COc1cc(Cn2cccn2)cc2onc(NS(=O)(=O)CC3CCC(F)(F)CC3)c12 [Example 10],48,89.4,–
CCOC1(CS(=O)(=O)Nc2noc3cc(Cn4cccn4)cc(OC)c23)CCC1 [Example 11],45,371,–
COc1cc(Cn2cccn2)cc2onc(NS(=O)(=O)C3CC3)c12 [Example 13],–,–,Ki [1]: 224 nM
COc1cc(Cn2cccn2)cc2onc(NS(=O)(=O)C3CC(CC#N)C3)c12 (centres unmarked) [Example 14],–,160,–
COc1cc(Cn2cccn2)cc2onc(NS(=O)(=O)CC3CCC3)c12 [Example 17],83,82.4,–
COc1cc(Cn2cccn2)cc2onc(NS(=O)(=O)CC3CCCC(F)(F)C3)c12 (centres unmarked) [Example 19],81,65.3,–
COc1cc(Cn2cccn2)cc2onc(NS(=O)(=O)C3CCCC3)c12 [Example 20],–,–,Ki [1]: 36.5 nM
COc1cc(Cn2cccn2)cc2onc(NS(=O)(=O)C3CCC(C)C3)c12 (centres unmarked) [Example 21],84,34.5,–
COc1cc(Cn2cccn2)cc2onc(NS(=O)(=O)CC3(C)CCCCC3)c12 [Example 22],60,33.2,–
COc1cc(Cn2cccn2)cc2onc(NS(=O)(=O)CCC3CC3)c12 [Example 23],92,31.6,–

Compound,inhibition at 1 µM [%],Ki (KAT6A Ki at 10 μM AcCoA) [nM],further results
COc1cc(Cn2cccn2)cc2onc(NS(=O)(=O)CC34CCC(CC3)CC4)c12 [Example 24],93,19.5,–
COc1cc(Cn2cccn2)cc2onc(NS(=O)(=O)[C@H]3C[C@H]4CC[C@H]3C4)c12 [Example 25],87,16.5,–
COc1cc(Cn2cccn2)cc2onc(NS(=O)(=O)[C@H]3C[C@@H]3c3ccc(F)cc3)c12 [Example 27],–,13.8,–
COc1cc(Cn2cccn2)cc2onc(NS(=O)(=O)[C@H]3C[C@H]3c3ccccc3)c12 [Example 28],–,–,Ki [1]: 14.2 nM
COc1cc(Cn2cccn2)cc2onc(NS(=O)(=O)CCC3CCC3)c12 [Example 29],103,13.1,–
COc1cc(Cn2cccn2)cc2onc(NS(=O)(=O)CC3CC4CCC3C4)c12 (centres unmarked) [Example 30],98,7.32,–
COc1cc(Cn2cccn2)cc2onc(NS(=O)(=O)CCC3CCCCC3)c12 [Example 31],93,4.94,–
COc1cc(Cn2cccn2)cc2onc(NS(=O)(=O)CCC(C)(C)C3CC3)c12 [Example 32],108,4.88,–
COc1cc(Cn2cccn2)cc2onc(NS(=O)(=O)CC3(C#N)CC3)c12 [Example 35],40,–,–
COc1cc(Cn2cccn2)cc2onc(NS(=O)(=O)CCCC3CCCCC3)c12 [Example 37],98,–,–
COc1cc(Cn2cccn2)cc2onc(NS(=O)(=O)CC3(C#N)CCCCC3)c12 [Example 40],58,–,–
COc1cc(Cn2cccn2)cc2onc(NS(=O)(=O)CCC3CC4CCC3C4)c12 (centres unmarked) [Example 45],108,–,–
COc1cc(Cn2cccn2)cc2onc(NS(=O)(=O)CC(OC)C3CCCCC3)c12 (centres unmarked) [Example 46],103,–,–
COCC1(S(=O)(=O)Nc2noc3cc(Cn4cccn4)cc(OC)c23)CC1 [Example 47],68,–,–
COc1cc(Cn2cccn2)cc2onc(NS(=O)(=O)CC3(OC)CCCCC3)c12 [Example 52],66,127,–
COc1cc(Cn2cccn2)cc2onc(NS(=O)(=O)CCC3(C)CC3)c12 [Example 53],97,–,–
COc1cc(Cn2cccn2)cc2onc(NS(=O)(=O)CC3CCCC(F)C3)c12 (centres unmarked) [Example 54],82,–,–
COCC1(CS(=O)(=O)Nc2noc3cc(Cn4cccn4)cc(OC)c23)CCC1 [Example 55],64,–,–

# More lines, main results first:
inhibition at 1 µM [%],Compound,Ki (KAT6A Ki at 10 μM AcCoA) [nM],further results
59,COc1cc(Cn2cccn2)cc2onc(NS(=O)(=O)C3CCC3)c12 [Example 12],–,Ki [1]: 199 nM
81,COc1cc(Cn2cccn2)cc2onc(NS(=O)(=O)C3CCC(C#N)C3)c12 (centres unmarked) [Example 16],–,–
83,COc1cc(Cn2cccn2)cc2onc(NS(=O)(=O)[C@H]3CCC[C@H]3OC)c12 [Example 18],–,Ki [1]: 71.9 nM
71,CC[C@@H]1C[C@@H]1S(=O)(=O)Nc1noc2cc(Cn3cccn3)cc(OC)c12 [Example 26],–,–
65,COc1cc(Cn2cccn2)cc2onc(NS(=O)(=O)C3CC4(CCC4)C3)c12 [Example 33],–,–
46,COc1cc(Cn2cccn2)cc2onc(NS(=O)(=O)CC3(C(F)(F)F)CC3)c12 [Example 34],–,–
51,COc1cc(Cn2cccn2)cc2onc(NS(=O)(=O)CC3CC(F)(F)C3)c12 [Example 36],–,–
92,COc1cc(Cn2cccn2)cc2onc(NS(=O)(=O)CC3CC4(CCC4)C3)c12 [Example 38],–,–
52,COc1cc(Cn2cccn2)cc2onc(NS(=O)(=O)CC3(C)CC3)c12 [Example 39],–,–
91,COc1cc(Cn2cccn2)cc2onc(NS(=O)(=O)CC3CCCCC3(F)F)c12 (centres unmarked) [Example 41],–,–
50,COc1cc(Cn2cccn2)cc2onc(NS(=O)(=O)CC3(C)CC3(F)F)c12 (centres unmarked) [Example 42],–,–
89,COc1cc(Cn2cccn2)cc2onc(NS(=O)(=O)C3CCC(OC)CC3)c12 (centres unmarked) [Example 44],–,–
55,COc1cc(Cn2cccn2)cc2onc(NS(=O)(=O)CC(C)C3CC3)c12 (centres unmarked) [Example 48],–,–
87,COc1cc(Cn2cccn2)cc2onc(NS(=O)(=O)CC3(C(F)F)CC3)c12 [Example 50],–,–
65,COc1cc(Cn2cccn2)cc2onc(NS(=O)(=O)C3CCC(F)(F)CC3)c12 [Example 51],–,–
